Values belong to the molecule of their own block, whether it stands above or below them.
Assays:
[1] = Blood counts (hemoglobin, hematocrit, white blood cells) in mice receiving AZT, BAU and/or DPR; pooled blood, Coulter Counter; format: in vivo, Female Balb/c mice; parameters: Hb (hemoglobin) / Hct (hematocrit): unit not given here
Description: For oral administration, BAU was dissolved in water to achieve a final concentration of 0.3 mg/mL. For intraperitoneal administration, BAU was dissolved in dimethylsulfoxide (DMSO) to achieve final concentrations of 60, 100, or 120 mg/mL.
The solution was centrifuged at 15,000 rpm for 20 minutes.
(§1) Female Balb/c mice, 6-12 weeks old, were purchased from the Animal Care Facility of the Roger Williams Cancer Center. The animals were randomly divided into eight groups. Six of the treatment protocols were performed in duplicate. Each group contained either eight or nine animals. The animals were weighed once weekly. Food and water was available ad libitum. Blood samples were obtained from the tail vein. The first blood sample was obtained on Day 0 and subsequent samples were obtained on Days 19, 27, 34 and 44, 48, 54 and 68 after the initiation of drug treatment. With each sampling, approximately 100 ul of blood was removed from each animal. The blood obtained from the animals in each group was pooled and analyzed by Coulter Counter. On each sample, hemoglobin, hematocrit, and white blood cell count were determined. The mean red cell volume was calculated. The Treatment Groups were as follows:
DMSO was given ip, 0.O1 mL/5 grams body weight, once weekly.
Group 4--BAU 240 mg/kg, ip, once weekly.
This corresponds to a daily administered dose of 43 mg/kg.
The concentration was 0.69 mg/ml which corresponds to an administered dose of 100 mg/kg/day.

[2] = Weekly body weight of treated mice; format: in vivo, Female Balb/c mice; conditions: measured each week
Description: as §1
Body weights of the animals in the treatment groups were measured each week.

[3] = system: granulocyte macrophage colony forming cells; conditions: in vitro; cited from earlier work
[4] = system: erythroid burst-forming cells; conditions: in vitro; cited from earlier work
[5] = system: human immunodifficiency virus reverse transcriptase; conditions: cited from earlier work
[6] = system: human bone marrow progenitor (HBMP) cells; conditions: in vitro; cited from earlier work
[7] = Oral bioavailability of BAU; conditions: in vivo, 43 mg/kg, drinking water, read-out: bioavailability of BAU administered orally
Description: Group 7--AZT administered in the drinking water (1 mg/mL) and BAU administered in the same container of drinking water (0.3 mg/mL). This corresponds to a daily administered dose of 43 mg/kg. The bioavailability of BAU administered orally was 80%. Therefore, the bioavailable dose of BAU administered to this group was 240 mg/kg/week.

uridine phosphorylase = conditions: cited from earlier work
[8] = human, in vivo; cited from earlier work
[9] = Day 0, AZT 1 mg/mL and/or DPR 0.69 mg/mL in drinking water, no BAU (Groups 3, 8, 9)
[10] = Day 0, AZT 1 mg/mL in drinking water (145 mg/kg/day) + DMSO ip once weekly (Group 2)
[11] = Day 19, AZT 1 mg/mL and/or DPR 0.69 mg/mL in drinking water, no BAU (Groups 3, 8, 9)
[12] = Day 19, AZT 1 mg/mL in drinking water (145 mg/kg/day) + DMSO ip once weekly (Group 2)
[13] = Day 27, AZT 1 mg/mL and/or DPR 0.69 mg/mL in drinking water, no BAU (Groups 3, 8, 9)
[14] = Day 27, AZT 1 mg/mL in drinking water (145 mg/kg/day) + DMSO ip once weekly (Group 2)
[15] = Day 34, AZT 1 mg/mL and/or DPR 0.69 mg/mL in drinking water, no BAU (Groups 3, 8, 9)
[16] = Day 34, AZT 1 mg/mL in drinking water (145 mg/kg/day) + DMSO ip once weekly (Group 2)
[17] = Day 48, AZT 1 mg/mL in drinking water (145 mg/kg/day) + DMSO ip once weekly (Group 2)
[18] = Day 48, AZT 1 mg/mL in drinking water (Group 3)
[19] = Day 44, DPR 0.69 mg/mL with or without AZT 1 mg/mL in drinking water (Groups 8, 9)
[20] = Day 54, DPR 0.69 mg/mL with or without AZT 1 mg/mL in drinking water (Groups 8, 9)
[21] = Day 68, DPR 0.69 mg/mL with or without AZT 1 mg/mL in drinking water (Groups 8, 9)
[22] = Day 0, BAU 240 mg/kg ip once weekly, without (Group 4) or with (Group 5) AZT 1 mg/mL in drinking water
[23] = Day 19, BAU 240 mg/kg ip once weekly, without (Group 4) or with (Group 5) AZT 1 mg/mL in drinking water
[24] = Day 27, BAU 240 mg/kg ip once weekly, without (Group 4) or with (Group 5) AZT 1 mg/mL in drinking water
[25] = Day 34, BAU 240 mg/kg ip once weekly, without (Group 4) or with (Group 5) AZT 1 mg/mL in drinking water
[26] = Day 48, BAU 240 mg/kg ip once weekly, without (Group 4) or with (Group 5) AZT 1 mg/mL in drinking water

SMILES: Cc1cn([C@H]2C[C@H](N=[N+]=[N-])[C@@H](CO)O2)c(=O)[nH]c1=O [AZT, 3'-Azido-3'-deoxythymidine]
- Hb (hemoglobin) [1, 9]: 17.3
- Hct (hematocrit) [1, 9]: 43.0
- WBC (white blood cell count) [1, 9]: 8.4
- Hb (hemoglobin) [1, 10]: 17.3
- Hct (hematocrit) [1, 10]: 49.0
- WBC (white blood cell count) [1, 10]: 10.1
- Hb (hemoglobin) [1, 11]: 13.7
- Hct (hematocrit) [1, 11]: 43.0
- Hb (hemoglobin) [1, 12]: 12.8
- Hct (hematocrit) [1, 12]: 36.0
- WBC (white blood cell count) [1, 12]: 21.2
- Hb (hemoglobin) [1, 13]: 13.6
- Hct (hematocrit) [1, 13]: 43
- WBC (white blood cell count) [1, 13]: 13.6
- Hb (hemoglobin) [1, 14]: 13
- Hct (hematocrit) [1, 14]: 40
- WBC (white blood cell count) [1, 14]: 11.6
- Hb (hemoglobin) [1, 15]: 13.9
- Hct (hematocrit) [1, 15]: 42
- WBC (white blood cell count) [1, 15]: 13.3
- Hb (hemoglobin) [1, 16]: 11.6
- Hct (hematocrit) [1, 16]: 35
- WBC (white blood cell count) [1, 16]: 11.5
- Hb (hemoglobin) [1, 17]: 11.0
- Hct (hematocrit) [1, 17]: 33
- WBC (white blood cell count) [1, 17]: 5.0
- Hb (hemoglobin) [1, 18]: 13.2
- Hct (hematocrit) [1, 18]: 34
- WBC (white blood cell count) [1, 18]: 5.6
- nature of anemia produced in mice ([1]; mice): typical of AZT induced anemia in humans
- body weight over time [2]: tended to lose weight as their anemia increased over time
- inhibition of granulocyte macrophage colony forming cells [3]: consistently inhibit granulocyte macrophage colony forming cells and erythroid burst-forming cells in dose-dependent fashion
- inhibition of erythroid burst-forming cells [4]: consistently inhibit granulocyte macrophage colony forming cells and erythroid burst-forming cells in dose-dependent fashion
- inhibition of HIV reverse transcriptase [5]: inhibits the human immunodifficiency virus reverse transcriptase

SMILES: Nc1ccn([C@@H]2O[C@H](CO)[C@@H](O)[C@H]2O)c(=O)n1 [cytidine]
- reversal of toxic effect of AZT in HBMP cells [6]: could reverse the toxic effect of AZT in HBMP cells

SMILES: OCCN(CCO)c1nc(N2CCCCC2)c2nc(N(CCO)CCO)nc(N3CCCCC3)c2n1 [DPR, 2,2',2"2'"-(4,8-dipiperidinopyimidol[5,4-d]pyrimidene-2,6-diyldinitrilo) tetraethanol]
- Hb (hemoglobin) [1, 9]: 16.5
- Hct (hematocrit) [1, 9]: 48.0
- WBC (white blood cell count) [1, 9]: 5.9
- Hb (hemoglobin) [1, 11]: 14.3
- Hct (hematocrit) [1, 11]: 49
- WBC (white blood cell count) [1, 11]: 11.1
- Hb (hemoglobin) [1, 13]: 15.5
- Hct (hematocrit) [1, 13]: 45
- WBC (white blood cell count) [1, 13]: 10
- Hb (hemoglobin) [1, 15]: 14.8
- Hct (hematocrit) [1, 15]: 45
- WBC (white blood cell count) [1, 15]: 9.4
- Hb (hemoglobin) [1, 19]: 14.6
- Hct (hematocrit) [1, 19]: 45
- WBC (white blood cell count) [1, 19]: 9.1
- Hb (hemoglobin) [1, 20]: 15.4
- Hct (hematocrit) [1, 20]: 46
- WBC (white blood cell count) [1, 20]: 7.6
- Hb (hemoglobin) [1, 21]: 15.7
- Hct (hematocrit) [1, 21]: 45
- WBC (white blood cell count) [1, 21]: 9.3

- bioavailability [7]: 80%
SMILES: O=c1[nH]c(=O)n(COCCO)cc1Cc1ccccc1 [BAU, 5-benzylacyclouridine]
- Hb (hemoglobin) [1, 22]: 18.3
- Hct (hematocrit) [1, 22]: 52.0
- WBC (white blood cell count) [1, 22]: 8.8
- Hb (hemoglobin) [1, 23]: 17.3
- Hct (hematocrit) [1, 23]: 50.0
- WBC (white blood cell count) [1, 23]: 10.8
- Hb (hemoglobin) [1, 24]: 16.2
- Hct (hematocrit) [1, 24]: 51
- WBC (white blood cell count) [1, 24]: 6.6
- Hb (hemoglobin) [1, 25]: 17.2
- Hct (hematocrit) [1, 25]: 50
- WBC (white blood cell count) [1, 25]: 7.9
- Hb (hemoglobin) [1, 26]: 16.6
- Hct (hematocrit) [1, 26]: 49
- WBC (white blood cell count) [1, 26]: 6.4
- inhibition of cleavage of 5-fluoro-2'-deoxyuridine (uridine phosphorylase): inhibits the cleavage of the antineoplastic 5-fluoro-2'-deoxyuridine
- inhibition of uridine phosphorylase (uridine phosphorylase; cleavage of uridine to uracil): inhibitor of the enzyme uridine phosphorylase

SMILES: O=c1ccn([C@@H]2O[C@H](CO)[C@@H](O)[C@H]2O)c(=O)[nH]1 [uridine]
- reversal of toxic effect of AZT in HBMP cells [6]: could reverse the toxic effect of AZT in HBMP cells
- body temperature [8]: rapid and potentially dangerous rises in body temperature
- elimination from the plasma [8]: rapidly eliminated from the plasma

Reference: patent publication US4950466A, “Reduction of the severity of 3'-azido-3'-deoxythymidine-induced anemia using a combination of benzylacyclouridine and dipyridamole” (priority 1988, dated 1990)
